Data set [1] is described as follows: Apparent permeability of compound in dog RRCK cells measured after 1.5 hrs by LC-MS/MS analysis. The following applies: MDCK.
Data set [2] can be described thus: Half-life in mouse at 30 mg/kg, po measured upto 24 hrs by LC-MS/MS analysis. The data set is classed as ADME, organism-based. The following applies: in vivo.
The nature of data set [3]: Volume of distribution at steady state in mouse at 30 mg/kg, po measured upto 24 hrs by LC-MS/MS analysis. The data set is classed as ADME, organism-based. The following applies: in vivo.
Data set [4] is described as follows: Metabolic stability in human liver microsomes assessed as apparent intrinsic clearance at 1 uM measured upto 60 mins in presence of NADPH by LC-MS/MS analysis. Type of data set: ADME, Microsome. The following applies: read-out: CLH.
Data set [5] deals with MIA PaCa-2. Briefly: Antiproliferative activity against human MIA PaCa-2 cells incubated for 6 days by CyQUANT cell proliferation assay. The data set is classed as functional, cell-based. The note with it: MIA PaCa-2, 144 h.
Data set [6] is described as follows: Clearance in mouse blood at 30 mg/kg, po measured upto 24 hrs by LC-MS/MS analysis. The data set is classed as ADME, organism-based. The note with it: whole blood.
Data set [7] in a line: Bioavailability in mouse at 30 mg/kg, po measured upto 24 hrs by LC-MS/MS analysis. The data set is classed as ADME, organism-based. The following applies: in vivo.
Data set [8] has as its system MIA PaCa-2. Briefly: Antitumor activity against human MIA PaCa-2 cells xenografted in NSG mouse assessed as tumor stasis at 30 mg/kg, po qd measured after 24 days. The note with it: time 24.0 day. The data set is classed as functional, organism-based.
The test system of data set [9] is MIA PaCa-2. Briefly: Antitumor activity against human MIA PaCa-2 cells xenografted in NSG mouse assessed as time duration of coverage of MIA PaCa-2 IC50 in plasma at 15 mg/kg, po bid. The data set is classed as functional.
Data set [10] has as its system MIA PaCa-2. Briefly: Antitumor activity against human MIA PaCa-2 cells xenografted in NSG mouse assessed as tumor growth inhibition at 10 mg/kg, po bid measured after 24 days by caliper method. The data set is classed as functional. The note with it: MIA PaCa-2, 576 h, time 24 day, read-out: TGI.
Data set [11] is described as follows: Toxicity in NSG mouse xenografted in with human MIA PaCa-2 cells assessed as body weight loss at 15 to 30 mg/kg, po qd […]. The data set is classed as organism-based. The note with it: in vivo, dose 15-30 mg/kg.
Data set [12] concerns MIA PaCa-2. Briefly: Antitumor activity against human MIA PaCa-2 cells xenografted in NSG mouse assessed as tumor growth inhibition at 15 mg/kg, po qd measured after 24 days by caliper method. The following applies: MIA PaCa-2, 576 h, time 24 day, read-out: TGI. Type of data set: functional.
The subject of data set [13] is MIA PaCa-2. The data set can be described thus: Antitumor activity against human MIA PaCa-2 cells xenografted in NSG mouse assessed as tumor growth inhibition at 15 mg/kg, po bid measured after 24 days by caliper method. The data set is classed as functional. The following applies: MIA PaCa-2, 576 h, time 24 day, read-out: TGI.
For data set [14], the system named is MIA PaCa-2. The data set can be described thus: Antitumor activity against human MIA PaCa-2 cells xenografted in NSG mouse assessed as time duration of coverage of MIA PaCa-2 IC50 in plasma at 30 mg/kg, po qd. Type of data set: functional.
The subject of data set [15] is MIA PaCa-2. Briefly: Antitumor activity against human MIA PaCa-2 cells xenografted in NSG mouse assessed as time duration of coverage of MIA PaCa-2 IC50 in plasma at 10 mg/kg, po bid. Type of data set: functional.
Data set [16] concerns MIA PaCa-2. Briefly: Antitumor activity against human MIA PaCa-2 cells xenografted in po dosed NSG mouse assessed as reduction in tumor volume measured after 24 days by caliper method. The data set is classed as functional, organism-based. The note with it: time 24.0 day.
For data set [17], the system named is MIA PaCa-2. The data set can be described thus: Antitumor activity against human MIA PaCa-2 cells xenografted in NSG mouse assessed as time duration of coverage of MIA PaCa-2 IC90 in plasma at 10 mg/kg, po bid. Type of data set: functional.
In data set [18] the test system is MIA PaCa-2. The data set can be described thus: Antitumor activity against human MIA PaCa-2 cells xenografted in NSG mouse assessed as time duration of coverage of MIA PaCa-2 IC50 in plasma at 15 mg/kg, po qd. Type of data set: functional.
Data set [19] has as its system MIA PaCa-2. Briefly: Antitumor activity against human MIA PaCa-2 cells xenografted in NSG mouse assessed as time duration of coverage of MIA PaCa-2 IC90 in plasma at 15 mg/kg, po bid. Type of data set: functional.
Data set [20] has as its system MIA PaCa-2. Briefly: Antitumor activity against human MIA PaCa-2 cells xenografted in NSG mouse assessed as tumor stasis at 15 mg/kg, po BID measured after 24 days. Type of data set: functional, organism-based. The note with it: time 24.0 day.
In data set [21] the test system is MIA PaCa-2. The data set can be described thus: Antitumor activity against human MIA PaCa-2 cells xenografted in NSG mouse assessed as time duration of coverage of MIA PaCa-2 IC90 in plasma at 15 mg/kg, po qd. The data set is classed as functional.
In data set [22] the test system is MIA PaCa-2. Briefly: Antitumor activity against human MIA PaCa-2 cells xenografted in NSG mouse assessed as time duration of coverage of MIA PaCa-2 IC90 in plasma at 30 mg/kg, po qd. The data set is classed as functional.
Data set [23] relates to MIA PaCa-2. The data set can be described thus: Antitumor activity against human MIA PaCa-2 cells xenografted in NSG mouse assessed as tumor growth inhibition at 30 mg/kg, po qd measured after 24 days by caliper method. The note with it: MIA PaCa-2, 576 h, time 24 day, read-out: TGI. Type of data set: functional.
Data set [24] is described as follows: Toxicity in NSG mouse xenografted in with human MIA PaCa-2 cells assessed as body weight loss at 10 to 15 mg/kg, po bid […]. Type of data set: organism-based. The note with it: in vivo, dose 10-15 mg/kg.
The target of a further data set is Cytochrome P450 3A4 (Homo sapiens, UniProt P08684). Briefly: Inhibition of CYP3A4 in human liver microsomes using midazolam as substrate incubated for 4 mins by LC-MS/SM analysis.

Structures are written as SMILES. The source made the active and inactive calls. The rule behind the calls is not given here.

Chain of Cytochrome P450 3A4 (P08684 whole entry): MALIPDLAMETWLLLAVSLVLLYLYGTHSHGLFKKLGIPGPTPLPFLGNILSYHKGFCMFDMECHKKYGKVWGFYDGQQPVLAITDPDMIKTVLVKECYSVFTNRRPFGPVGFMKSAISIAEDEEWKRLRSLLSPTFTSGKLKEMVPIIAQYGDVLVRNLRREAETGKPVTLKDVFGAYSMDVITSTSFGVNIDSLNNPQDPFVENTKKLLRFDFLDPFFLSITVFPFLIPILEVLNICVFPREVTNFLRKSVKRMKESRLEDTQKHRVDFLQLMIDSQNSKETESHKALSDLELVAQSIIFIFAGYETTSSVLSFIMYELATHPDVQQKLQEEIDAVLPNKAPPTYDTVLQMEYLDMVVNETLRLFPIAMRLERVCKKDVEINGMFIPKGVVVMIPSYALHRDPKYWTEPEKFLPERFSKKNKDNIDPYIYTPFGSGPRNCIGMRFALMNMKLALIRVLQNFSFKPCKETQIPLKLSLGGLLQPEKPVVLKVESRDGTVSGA

With `CC[C@@](C)(N)c1ccnc(Nc2cc3cc(-c4cnnn4C)nc(N)c3cn2)c1`, in data set [1], the Papp at 1.5 h came out at 6.4 ×10⁻⁶ cm/s. For the same compound, the half-life in [2] was 3.8 h. The Vdss in data set [3] turned out to be 2.8 L/kg. Moreover, the microsomal CLint at 1 µM in data set [4] was < 7 µL/min/mg. Also, the IC50 in the data set with MIA PaCa-2 [5] is 6.5 nM. The same compound showed a CL/F in [6] of 49.4 mL/min/kg. Also, in data set [7], the bioavailability was 3%.

`Cc1cn(C)nc1Nc1cc2cc(-c3cnccn3)nc(N)c2cn1`: in data set [4], the microsomal CLint at 1 µM is 21.2 µL/min/mg.

Take `CCn1nc(Nc2cc3cc(-c4cnnn4C)nc(N)c3cn2)c2c1[C@@H]1CC[C@H]2C(=O)N1C1CCC1`: in data set [1], the Papp at 1.5 h was 5.2 ×10⁻⁶ cm/s. In data set [4], the microsomal CLint at 1 µM was determined as 76.8 µL/min/mg.

For the compound `Cc1cn(C)nc1Nc1cc2cc(-c3cncn3C)nc(N)c2cn1`, in [4], the microsomal CLint at 1 µM is 8.2 µL/min/mg.

Turning to `CCC(N)(CC)c1ccnc(Nc2cc3cc(-c4cnnn4C)nc(N)c3cn2)c1`, the outcome with MIA PaCa-2 [8] and in the data set with MIA PaCa-2 [20] was Active. Moreover, the “T>IC50” value with MIA PaCa-2 [9] amounted to 24 h; with MIA PaCa-2 [14], 24 h; in the data set on MIA PaCa-2 [15] it was 21 h; in the data set on MIA PaCa-2 [18] it was 15 h. The inhibition in vivo at 10 mg/kg in the data set on MIA PaCa-2 [10] turned out to be 58%. Moreover, the Activity entry in data set [11] was “Non-toxic”; with MIA PaCa-2 [16], “Dose-dependent-effect”; in data set [24], “Non-toxic”. The inhibition in vivo at 15 mg/kg with MIA PaCa-2 [12] is 35%; in the data set on MIA PaCa-2 [13], 103%. Moreover, the apparent permeability coefficient (Papp) at 1.5 h in [1] was 11.1 ×10⁻⁶ cm/s. In addition, the half-life in [2] was 12 h. The Vdss in [3] was 4.9 L/kg. The “T>IC90” value stood at 16 h in the data set on MIA PaCa-2 [17], 19 h in the data set with MIA PaCa-2 [19], 9 h in the data set on MIA PaCa-2 [21] and 16 h in the data set on MIA PaCa-2 [22]. In addition, in [4], the microsomal CLint at 1 µM was 41.1 µL/min/mg. Besides, the inhibition in vivo at 30 mg/kg with MIA PaCa-2 [23] turned out to be 106%. This compound returned an IC50 in the data set with MIA PaCa-2 [5] of 3 nM. Besides, in [6], the apparent clearance CL/F was 109 mL/min/kg. For the same compound, the bioavailability in [7] was 96%.

`Cc1cn(C)nc1Nc1cc2cc(-c3sncc3C)nc(N)c2cn1`: the microsomal CLint at 1 µM in data set [4] amounted to 189 µL/min/mg.

Consider `CC[C@](C)(N)c1ccnc(Nc2cc3cc(-c4cnnn4C)nc(N)c3cn2)c1`, for which the Papp at 1.5 h in data set [1] stood at 5.6 ×10⁻⁶ cm/s. Besides, the half-life in [2] is 0.6 h. Moreover, in data set [3], the Vdss is 3.2 L/kg. In data set [4], the microsomal CLint at 1 µM is < 7 µL/min/mg. In the data set on MIA PaCa-2 [5], this compound showed an IC50 of 14.5 nM. In data set [6], this compound showed a CL/F of 124 mL/min/kg. For the same compound, in [7], the bioavailability was 7%.

Regarding `Cc1cn(C)nc1Nc1cc2cc(-c3cn[nH]c3C)nc(N)c2cn1`, the Papp at 1.5 h in data set [1] came out at 10.8 ×10⁻⁶ cm/s. The microsomal CLint at 1 µM in [4] was 31.8 µL/min/mg. For the same compound, the IC50 on Cytochrome P450 3A4 came out at 14500 nM.

`CCC(N)(CC)c1ccnc(Nc2cc3cc(N4CCOC4=O)nc(N)c3cn2)c1`: the Papp at 1.5 h in data set [1] was found to be 12.3 ×10⁻⁶ cm/s. Further, in [4], the microsomal CLint at 1 µM was 19.4 µL/min/mg. For the same compound, it took 12.8 nM to reach half-maximal inhibition with MIA PaCa-2 [5] (IC50).

For the compound `Cn1nncc1-c1cc2cc(Nc3cc(C(C)(C)O)ccn3)ncc2c(N)n1`, the Papp at 1.5 h in data set [1] was 13.3 ×10⁻⁶ cm/s. The microsomal CLint at 1 µM in data set [4] is < 7 µL/min/mg.

Take `Cc1cn(C)nc1Nc1cc2cc(C3CCc4nccn43)nc(N)c2cn1` (centres undefined): the Papp at 1.5 h in data set [1] amounted to 44.4 ×10⁻⁶ cm/s. In [4], the microsomal CLint at 1 µM stood at 28.6 µL/min/mg. In addition, the IC50 against Cytochrome P450 3A4 is > 22400 nM.

As to `Cn1nncc1-c1cc2cc(Nc3cc(C(C)(C)N)ccn3)ncc2c(N)n1`, the Papp at 1.5 h in [1] was 1.7 ×10⁻⁶ cm/s. Moreover, in data set [4], the microsomal CLint at 1 µM was < 7 µL/min/mg.

As for `Cn1nncc1-c1cc2cc(Nc3nn(C)c4c3[C@@H]3CC[C@H]4N(C4CCC4)C3)ncc2c(N)n1`, the Papp at 1.5 h in [1] was determined as 5.2 ×10⁻⁶ cm/s. In [4], the microsomal CLint at 1 µM is 201 µL/min/mg.

Turning to `Cc1cn(C)nc1Nc1cc2cc(-c3cnnn3C)nc(N)c2cn1`, the microsomal CLint at 1 µM in [4] turned out to be 15.3 µL/min/mg.

Source of the values: ChEMBL document CHEMBL6092218 (J Med Chem, 2024).
